± gives the expanded uncertainty stated by the source.

The mass density is the mass of a sample divided by its volume.

The conditions of this data set: 298.15 K; 101.33 kPa; Liquid; Pycnometric method.
For the compound `CCCCO` [butan-1-ol], the mass density is 805.5 ± 2 kg/m3.

For the compound `CC(C)O` [propan-2-ol], the mass density turned out to be 780.6 ± 1.9 kg/m3.

As for `CCOC(C)=O` [ethyl acetate], the mass density stood at 893.4 ± 2.1 kg/m3.

Turning to `CC#N` [acetonitrile], the mass density was 776.3 ± 1.9 kg/m3.

In the case of `CC(C)=O` [acetone], the mass density is listed as 783.8 ± 1.9 kg/m3.

Regarding `CCO` [ethanol], the mass density came out at 784.2 ± 1.9 kg/m3.

Take `COC(C)(C)C` [2-methoxy-2-methylpropane]: the mass density came out at 734.1 ± 1.9 kg/m3.

With `CO` [methanol], the mass density turned out to be 786.3 ± 1.9 kg/m3.

Values taken from the NIST ThermoML archive (doi:10.1016/j.jct.2015.02.004).
